# PubChem BioAssay AID2060620 (Molecular Pharmacology Branch, DTP, NCI, 2025)
# System: 328373-195-R-J1-PDC complex spheroids, viability % test/control
# Assay: Anticancer human tumor 328373-195-R-J1-PDC patient-derived head and neck squamous carcinoma cell line growth inhibition [CLK]
# Settings: for IC50: curve of first compound; for viability, T/C: stronger effect = lower value
# From the text: A high-throughput screen of multi-cell type tumor spheroids was designed to identify active combinations of […] and targeted small molecules. Complex spheroids include a stromal component modeled by human endothelial cells (HUVEC) and fibroblasts modeled by human mesenchymal stem cells (MSCs). The concentration ranges selected for each drug and investigational agent were based upon clinically achievable concentrations if the clinical Cmax of the agent was known.
# Compounds. The drugs and investigational agents: cirtuvivint (SM08502; NSC835563), CC-671 (NSC850746), vemurafenib (NSC761431), tapotoclax (NSC804041), sotorasib (NSC818433), adagrasib (NSC831453), MRTX-1133 (NSC836407), BAY2416964 (NSC825713), copanlisib (NSC816437), inavolisib (NSC800729), abemaciclib (NSC768073), osimertinib (NSC779217), entinostat (NSC756642), eltanexor (KPT-8602, NSC794443), venetoclax (NSC766270), ceralasertib (NSC777638), bortezomib (NSC756655), olaparib (NSC753686), talazoparib (NSC767125), alisertib (NSC759677), peposertib (NSC802822), gemcitabine (NSC613327), 5-fluorouracil (NSC19893), SN-38 (NSC673596), oxaliplatin (NSC266046), paclitaxel (NSC125973), and doxorubicin (NSC123127), were obtained from the National Cancer Institute (NCI) Developmental Therapeutics Program Chemical Repository. The FDA-approved anticancer drug set is available from the Developmental Therapeutics Program at https://dtp.cancer.gov/organization/dscb/obtaining/available plates.htm. […] The stock solutions were prepared in dimethyl sulfoxide (DMSO, Sigma-Aldrich, St. Louis, MO, cat. D2650), except for the platinum complexes which were prepared in saline (Quality Biological, Gaithersburg, MD, cat. 114-055-101), at 800-fold the tested concentration and stored at -70 degrees C prior to their use. All drugs and investigational agents were tested over a range starting from a high concentration at or near the clinical Cmax and decreasing in half-log increments. If the clinical Cmax for an agent had not been determined, the highest concentration tested was 10 microM.
# Cell Culture. All cells were maintained in an incubator at 37 degrees C and 5% CO2 with 95% humidity. The PDC lines were cultured according to standard operating procedures established by the NCI PDMR. Briefly, all PDCs were thawed and cultured in Matrigel-coated flasks prepared with a working solution of 1X Ham's F-12 nutrient mix, without supplementation (Invitrogen, Waltham, MA, cat. 11765054), 100 U/mL penicillin-streptomycin (Invitrogen, cat. 15140122), and 2.5% Matrigel (Corning Inc., Corning, NY, cat. 354248) for the first three passages. The 947758-054-R-J2-PDC line was cultured in 6B/Colon 1A media, which includes advanced DMEM/F-12 (Thermo Fisher Scientific, cat. 12634028), 10 mM HEPES (Thermo Fisher Scientific, cat. 15630080), 1X GlutaMAX supplement (Thermo Fisher Scientific, cat. 35050061), 0.1 mg/mL primocin (InvivoGen, cat. ant-pm-2), 10% defined fetal bovine serum, heat inactivated (HyClone Laboratories Inc., cat. SH30070.03HI), 1.25 mM N-Acetyl-L-cysteine (Sigma-Aldrich, cat. A9165), 10 mM nicotinamide (Sigma-Aldrich, cat. N0636), 1X B-27 supplement (Thermo Fisher Scientific, cat. 17504044), 1X N-2 supplement (Thermo Fisher Scientific, cat. 17502048), and 10 microM Y-27632 dihydrochloride (Tocris Bioscience, cat. 1254). The 876862-298-R-J1-PDC was cultured in 6E media, which includes all 6B/Colon 1A media components plus 50% L-WRN conditioned media (ATCC, cat. CRL-3276), 50 ng/mL recombinant human EGF recombinant protein (hEGF; Thermo Fisher Scientific, cat. PHG0311), 10 ng/mL recombinant human fibroblast growth factor 10 (hGFG-10; PeproTech, cat. 100-26), 1 ng/mL recombinant human fibroblast growth factor 2 (hFGF-2; PeproTech, cat. 100-18B), and 1 µM prostaglandin E2 (PGE2; Tocris, cat. 2296). The 227483-062-R1-J1-PDC line was cultured in Panc media, containing all 6E components except hFGF-2, with the addition of 500 nM SB-431542 (Selleckchem, cat. S1067) and 10 nM gastrin (Tocris, cat. 3006). […]
# [1] = second compound 0.0316 µM, first compound 0.0316 µM
# [2] = second compound 0.0316 µM, first compound 0.1 µM
# [3] = second compound 0.0316 µM, first compound 0.316 µM
# [4] = second compound 0.0316 µM, first compound 1 µM
# [5] = second compound 0.0316 µM, first compound 3.16 µM
# [6] = second compound 0.0316 µM, first compound 10 µM
# [7] = second compound 0.1 µM, first compound 0.0316 µM
# [8] = second compound 0.1 µM, first compound 0.1 µM
# [9] = second compound 0.1 µM, first compound 0.316 µM
# [10] = second compound 0.1 µM, first compound 1 µM
# [11] = second compound 0.1 µM, first compound 3.16 µM
# [12] = second compound 0.1 µM, first compound 10 µM
# [13] = second compound 0.316 µM, first compound 0.0316 µM
# [14] = second compound 0.316 µM, first compound 0.1 µM
# [15] = second compound 0.316 µM, first compound 0.316 µM
# [16] = second compound 0.316 µM, first compound 1 µM
# [17] = second compound 0.316 µM, first compound 3.16 µM
# [18] = second compound 0.316 µM, first compound 10 µM
# [19] = second compound 1 µM, first compound 0.0316 µM
# [20] = second compound 1 µM, first compound 0.1 µM
# [21] = second compound 1 µM, first compound 0.316 µM
# [22] = second compound 1 µM, first compound 1 µM
# [23] = second compound 1 µM, first compound 3.16 µM
# [24] = second compound 1 µM, first compound 10 µM
# [25] = second compound 3.16 µM, first compound 0.0316 µM
# [26] = second compound 3.16 µM, first compound 0.1 µM
# [27] = second compound 3.16 µM, first compound 0.316 µM
# [28] = second compound 3.16 µM, first compound 1 µM
# [29] = second compound 3.16 µM, first compound 3.16 µM
# [30] = second compound 3.16 µM, first compound 10 µM
# [31] = second compound 10 µM, first compound 0.0316 µM
# [32] = second compound 10 µM, first compound 0.1 µM
# [33] = second compound 10 µM, first compound 0.316 µM
# [34] = second compound 10 µM, first compound 1 µM
# [35] = second compound 10 µM, first compound 3.16 µM
# [36] = second compound 10 µM, first compound 10 µM
# 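Note: spheroids exposed to the agents for 7 days.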
smiles,measurement,setting,value
C=C(F)C(=O)N1CCN(c2nc(OCC3CCCN3C)nc3c2CCN(c2cccc4cccc(Cl)c24)C3)CC1CC#N (stereo unspecified) + CN1CCN(c2cc(C(=O)Nc3cc4cc(-c5cnn(C)c5)ccc4cn3)ccn2)CC1,IC50,second compound 0.0316 µM,4080 nM
same,IC50,second compound 0.1 µM,3570 nM
same,IC50,second compound 0.316 µM,< 31.6 nM
same,IC50,second compound 1 µM,< 31.6 nM
same,IC50,second compound 3.16 µM,< 31.6 nM
same,IC50,second compound 10 µM,< 31.6 nM
same,"viability, T/C",[1],103%
same,"viability, T/C",[2],99.5%
same,"viability, T/C",[3],96.9%
same,"viability, T/C",[4],91.5%
same,"viability, T/C",[5],63%
same,"viability, T/C",[6],3.75%
same,"viability, T/C",[7],80.5%
same,"viability, T/C",[8],90.8%
same,"viability, T/C",[9],81.7%
same,"viability, T/C",[10],81.6%
same,"viability, T/C",[11],55.7%
same,"viability, T/C",[12],1.67%
same,"viability, T/C",[13],35.2%
same,"viability, T/C",[14],38.1%
same,"viability, T/C",[15],34.7%
same,"viability, T/C",[16],34.3%
same,"viability, T/C",[17],22.8%
same,"viability, T/C",[18],3.9%
same,"viability, T/C",[19],0.25%
same,"viability, T/C",[20],4.59%
same,"viability, T/C",[21],1.43%
same,"viability, T/C",[22],0.34%
same,"viability, T/C",[23],1.34%
same,"viability, T/C",[24],0.52%
same,"viability, T/C",[25],2.92%
same,"viability, T/C",[26],0.86%
same,"viability, T/C",[27],1.39%
same,"viability, T/C",[28],1.82%
same,"viability, T/C",[29],5.78%
same,"viability, T/C",[30],0.76%
same,"viability, T/C",[31],4.95%
same,"viability, T/C",[32],2.58%
same,"viability, T/C",[33],0.33%
same,"viability, T/C",[34],0.79%
same,"viability, T/C",[35],1.9%
same,"viability, T/C",[36],0.96%
C=CC(=O)N1CCN(c2nc(=O)n(-c3c(C)ccnc3C(C)C)c3nc(-c4c(O)cccc4F)c(F)cc23)C(C)C1 (stereo unspecified) + CN1CCN(c2cc(C(=O)Nc3cc4cc(-c5cnn(C)c5)ccc4cn3)ccn2)CC1,IC50,second compound 0.0316 µM,> 10000 nM
same,IC50,second compound 0.1 µM,> 10000 nM
same,IC50,second compound 0.316 µM,< 31.6 nM
same,IC50,second compound 1 µM,< 31.6 nM
same,IC50,second compound 3.16 µM,< 31.6 nM
same,IC50,second compound 10 µM,< 31.6 nM
same,"viability, T/C",[1],93.6%
same,"viability, T/C",[2],90.1%
same,"viability, T/C",[3],99.3%
same,"viability, T/C",[4],99%
same,"viability, T/C",[5],94%
same,"viability, T/C",[6],77.7%
same,"viability, T/C",[7],80%
same,"viability, T/C",[8],82.7%
same,"viability, T/C",[9],89.3%
same,"viability, T/C",[10],86.6%
same,"viability, T/C",[11],83.5%
same,"viability, T/C",[12],62.9%
same,"viability, T/C",[13],37.6%
same,"viability, T/C",[14],37.7%
same,"viability, T/C",[15],41.1%
same,"viability, T/C",[16],43.2%
same,"viability, T/C",[17],36.2%
same,"viability, T/C",[18],16.5%
same,"viability, T/C",[19],0.2%
same,"viability, T/C",[20],2.35%
same,"viability, T/C",[21],0.89%
same,"viability, T/C",[22],0.26%
same,"viability, T/C",[23],1.99%
same,"viability, T/C",[24],1.88%
same,"viability, T/C",[25],1.99%
same,"viability, T/C",[26],4.29%
same,"viability, T/C",[27],3.33%
same,"viability, T/C",[28],0.14%
same,"viability, T/C",[29],1.88%
same,"viability, T/C",[30],0.7%
same,"viability, T/C",[31],1.21%
same,"viability, T/C",[32],1.7%
same,"viability, T/C",[33],1.33%
same,"viability, T/C",[34],0.55%
same,"viability, T/C",[35],3.67%
same,"viability, T/C",[36],1%
COC1C=CCC(C)C(C)S(=O)(=O)NC(=O)c2ccc3c(c2)N(CC2CCC21)CC1(CCCc2cc(Cl)ccc21)CO3 (stereo unspecified) + CN1CCN(c2cc(C(=O)Nc3cc4cc(-c5cnn(C)c5)ccc4cn3)ccn2)CC1,IC50,second compound 0.0316 µM,9330 nM
same,IC50,second compound 0.1 µM,7920 nM
same,IC50,second compound 0.316 µM,< 31.6 nM
same,IC50,second compound 1 µM,< 31.6 nM
same,IC50,second compound 3.16 µM,< 31.6 nM
same,IC50,second compound 10 µM,< 31.6 nM
same,"viability, T/C",[1],96.7%
same,"viability, T/C",[2],99.5%
same,"viability, T/C",[3],108%
same,"viability, T/C",[4],105%
same,"viability, T/C",[5],81.2%
same,"viability, T/C",[6],48%
same,"viability, T/C",[7],77.3%
same,"viability, T/C",[8],87%
same,"viability, T/C",[9],82.2%
same,"viability, T/C",[10],80.7%
same,"viability, T/C",[11],73.5%
same,"viability, T/C",[12],44%
same,"viability, T/C",[13],36%
same,"viability, T/C",[14],35.3%
same,"viability, T/C",[15],37%
same,"viability, T/C",[16],32.4%
same,"viability, T/C",[17],29.3%
same,"viability, T/C",[18],13.3%
same,"viability, T/C",[19],0.21%
same,"viability, T/C",[20],2.53%
same,"viability, T/C",[21],2.21%
same,"viability, T/C",[22],1.57%
same,"viability, T/C",[23],0.27%
same,"viability, T/C",[24],1.2%
same,"viability, T/C",[25],2.24%
same,"viability, T/C",[26],3.21%
same,"viability, T/C",[27],2.04%
same,"viability, T/C",[28],1.78%
same,"viability, T/C",[29],1.66%
same,"viability, T/C",[30],1.86%
same,"viability, T/C",[31],4.14%
same,"viability, T/C",[32],0.77%
same,"viability, T/C",[33],1.41%
same,"viability, T/C",[34],2.69%
same,"viability, T/C",[35],1.19%
same,"viability, T/C",[36],0.32%
